Earlier results, collected in patent US12403100B2, “Natural combination products and methods for regulation of total blood cholesterol” (priority 2018, dated 2025).

Experiments:
[1] = molecular target: T1, pancreatic cholesterol esterase (Sus scrofa, UniProt A0A286ZKB1); details: depending on their concentration
T1 sequence (A0A286ZKB1 1-682): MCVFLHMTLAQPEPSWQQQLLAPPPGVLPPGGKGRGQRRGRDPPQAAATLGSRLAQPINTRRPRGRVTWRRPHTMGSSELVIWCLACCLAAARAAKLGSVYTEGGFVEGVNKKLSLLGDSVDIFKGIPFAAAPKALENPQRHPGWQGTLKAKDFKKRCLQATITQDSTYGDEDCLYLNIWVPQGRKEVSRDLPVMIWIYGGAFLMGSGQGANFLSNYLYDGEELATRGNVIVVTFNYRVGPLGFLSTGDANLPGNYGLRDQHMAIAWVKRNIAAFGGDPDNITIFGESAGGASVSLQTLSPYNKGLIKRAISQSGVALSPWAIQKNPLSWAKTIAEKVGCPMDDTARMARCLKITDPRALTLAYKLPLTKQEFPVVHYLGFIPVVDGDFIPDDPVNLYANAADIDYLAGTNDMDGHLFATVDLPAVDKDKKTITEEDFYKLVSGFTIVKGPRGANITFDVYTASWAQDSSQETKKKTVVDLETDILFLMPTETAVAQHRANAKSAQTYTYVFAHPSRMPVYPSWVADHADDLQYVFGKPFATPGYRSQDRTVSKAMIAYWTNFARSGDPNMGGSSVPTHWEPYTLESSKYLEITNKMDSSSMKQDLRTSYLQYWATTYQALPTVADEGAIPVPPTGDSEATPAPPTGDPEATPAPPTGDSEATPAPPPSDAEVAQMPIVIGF

lipoprotein mycelia = details: concentration of 0.2 mg/mL
[2] = not given; remark: listed apart in the source
[3] = aqueous-acidic medium
[4] = not given; remark: listed apart in the source
[5] = tested on: hyperlipidemic patients with hypertension; details: intake of 20 mg of lovastatin, same time (8 weeks)
[6] = in vivo
[7] = Reynoso et al. 2002
[8] = in vivo; remark: listed apart in the source
CYP 3A4 = CYP 3A4 (Homo sapiens, UniProt P08684)
Sequence of CYP 3A4 (P08684 whole entry): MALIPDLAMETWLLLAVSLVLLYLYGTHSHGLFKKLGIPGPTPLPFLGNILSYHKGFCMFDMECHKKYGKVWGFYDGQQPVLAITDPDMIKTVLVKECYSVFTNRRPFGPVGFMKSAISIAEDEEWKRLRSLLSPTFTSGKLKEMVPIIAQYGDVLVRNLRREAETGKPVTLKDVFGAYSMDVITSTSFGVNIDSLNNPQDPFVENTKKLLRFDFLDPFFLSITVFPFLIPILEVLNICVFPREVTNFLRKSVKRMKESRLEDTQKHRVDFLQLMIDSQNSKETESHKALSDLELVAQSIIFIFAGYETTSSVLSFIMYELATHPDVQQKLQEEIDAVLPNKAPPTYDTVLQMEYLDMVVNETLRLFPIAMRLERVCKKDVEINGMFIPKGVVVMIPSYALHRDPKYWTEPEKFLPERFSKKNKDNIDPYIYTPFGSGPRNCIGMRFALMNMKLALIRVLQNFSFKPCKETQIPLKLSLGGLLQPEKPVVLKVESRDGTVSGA

CYP 2C9 = CYP 2C9 (Homo sapiens, UniProt P11712)
Sequence of CYP 2C9 (P11712 whole entry): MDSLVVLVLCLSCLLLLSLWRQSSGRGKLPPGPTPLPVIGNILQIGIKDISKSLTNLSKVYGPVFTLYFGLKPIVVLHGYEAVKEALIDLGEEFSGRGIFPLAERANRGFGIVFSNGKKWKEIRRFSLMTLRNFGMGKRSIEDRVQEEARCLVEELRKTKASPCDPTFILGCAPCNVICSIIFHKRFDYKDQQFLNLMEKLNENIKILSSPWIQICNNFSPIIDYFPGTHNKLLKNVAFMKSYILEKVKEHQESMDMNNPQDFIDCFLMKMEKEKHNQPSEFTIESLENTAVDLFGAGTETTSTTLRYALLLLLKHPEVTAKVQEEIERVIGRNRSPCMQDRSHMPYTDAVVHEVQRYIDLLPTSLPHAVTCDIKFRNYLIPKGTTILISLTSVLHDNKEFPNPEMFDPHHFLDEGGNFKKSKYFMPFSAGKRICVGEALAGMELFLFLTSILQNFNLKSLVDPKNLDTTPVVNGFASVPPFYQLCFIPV

catechin
inhibition of pancreatic cholesterol ester [1]: significantly inhibit
reduction of the formation of lipoprotein mycelia (lipoprotein mycelia): 11.88±0.75%

CC[C@H](C)C(=O)O[C@H]1C[C@@H](C)C=C2C=C[C@H](C)[C@H](CC[C@@H]3C[C@@H](O)CC(=O)O3)[C@H]21 [Lovastatin]
lipophilic or hydrophilic: lipophilic
remaining share of the maximal concentration ([2]; after about 24 hours): 10%
absorbed in the gastrointestinal tract ([2]; from the taken dose): about 30%
passage through the placental barrier ([2]; in vivo): passes through the placental barrier
share converted to beta hydroxyl acid ([2]; in vivo): about 30%
time to maximal hypolipidemic effect ([2]; in vivo): 4-6 weeks
time to overt hypolipidemic effect ([2]; in vivo): 2 weeks
time until maximal concentration is reached ([2]; in vivo): about 2 hours
eliminated in excrement ([2]; taken orally): 83%
eliminated in the urine ([2]; taken orally): 10%
energy released by the reverse process (hydrolysis) [3]: 2.42 kcal/mol
solubility in fat [4]: dissolves more easily in fat
solubility in water [4]: difficult to dissolve in water
reduction in cholesterol [5]: 19%
Absorption (%) [6]: 31%
Plasma half-life [6]: 2 to 4 h
Renal excretion (%) [6]: 30%
Binding to Plasma proteins (%) (plasma proteins): 95%
bound to plasma proteins (plasma proteins; lovastatin and its metabolites): > 95%
absorbed from the digestive tract [7]: ~30%

CC[C@H](C)C(=O)O[C@H]1C[C@@H](C)C=C2C=C[C@H](C)[C@H](CC[C@@H](O)C[C@@H](O)CC(=O)O)[C@H]21 [Mevinolinic acid]
energy required for lactonization of mevinolinic acid in lovastatin [3]: 4.93 kcal/mol
solubility in fat [4]: with more difficultly in fat
solubility in water [4]: dissolves easily in water

CCC(C)(C)C(=O)O[C@H]1C[C@@H](C)C=C2C=C[C@H](C)[C@H](CC[C@@H]3C[C@@H](O)CC(=O)O3)[C@H]21 [Simvastatin]
Plasma half-life [6]: 1.3 to 2.4 h

CC[C@H](C)C(=O)O[C@H]1C[C@H](O)C=C2C=C[C@H](C)[C@H](CC[C@@H](O)C[C@@H](O)CC(=O)O)[C@H]21 [Pravastatin]
lipophilic or hydrophilic: hydrophilic
Passing through the blood-brain barrier [8]: No
Absorption (%) [6]: 35%
Plasma half-life [6]: 0.9 to 1.6 h
Renal excretion (%) [6]: 60%
Binding to Plasma proteins (%) (plasma proteins): 40-50%
Metabolism by CYP450 (CYP450): No
metabolized by CYP 3A4 (CYP 3A4): not metabolized

CC(C)c1nc(N(C)S(C)(=O)=O)nc(-c2ccc(F)cc2)c1/C=C/[C@@H](O)C[C@@H](O)CC(=O)O [rosuvastatin]
lipophilic or hydrophilic: hydrophilic
metabolized by CYP 2C9 (CYP 2C9): metabolized
metabolized by CYP 3A4 (CYP 3A4): not metabolized

O=C(O)c1cc(O)c(O)c(O)c1 [gallic acid]
inhibition of pancreatic cholesterol ester [1]: significantly inhibit
reduction of the formation of lipoprotein mycelia (lipoprotein mycelia): 27.26±2.17%

CC(C)n1c(/C=C/C(O)CC(O)CC(=O)O)c(-c2ccc(F)cc2)c2ccccc21 (centres unmarked) [Fluvastatin]
lipophilic or hydrophilic: lipophilic
Passing through the blood-brain barrier [8]: No
metabolized by CYP 2C9 (CYP 2C9): metabolized
Plasma half-life [6]: 1.2 h
Metabolism by CYP450 (CYP450): Yes
